# Source: PubChem BioAssay AID1259407 (Chemical Carcinogenesis Research Information System (CCRIS), 2018)
# Calls of active or inactive are those of the source. How the calls were made is not given here.
# System: CCRIS mutagenicity, Ames/micronucleus/aberration tests
# Assay: CCRIS mutagenicity studies
# [1] = Test System: AMES SALMONELLA TYPHIMURIUM, Strain/Indicator: TA98, Metabolic Activation: NONE, Method: PREINCUBATION
# [2] = Test System: AMES SALMONELLA TYPHIMURIUM, Strain/Indicator: TA100, Metabolic Activation: NONE, Method: PREINCUBATION
# [3] = Test System: AMES SALMONELLA TYPHIMURIUM, Strain/Indicator: TA1535, Metabolic Activation: NONE, Method: PREINCUBATION
# [4] = Test System: AMES SALMONELLA TYPHIMURIUM, Strain/Indicator: TA1537, Metabolic Activation: NONE, Method: PREINCUBATION
structure (smiles),measurement,setting,value
NN=C(N)N,mutagenic call,[1],inactive; negative
same,mutagenic call,"Test System: AMES SALMONELLA TYPHIMURIUM, Strain/Indicator: TA98, Metabolic Activation: RAT LIVER S-9, PHENOBARBITAL AND BETA-NAPHTHOFLAVONE, Method: PREINCUBATION",inactive; negative
same,mutagenic call,[2],inactive; negative
same,mutagenic call,"Test System: AMES SALMONELLA TYPHIMURIUM, Strain/Indicator: TA100, Metabolic Activation: RAT LIVER S-9, PHENOBARBITAL AND BETA-NAPHTHOFLAVONE, Method: PREINCUBATION",inactive; negative
same,mutagenic call,[3],inactive; negative
same,mutagenic call,"Test System: AMES SALMONELLA TYPHIMURIUM, Strain/Indicator: TA1535, Metabolic Activation: RAT LIVER S-9, PHENOBARBITAL AND BETA-NAPHTHOFLAVONE, Method: PREINCUBATION",inactive; negative
same,mutagenic call,[4],inactive; negative
same,mutagenic call,"Test System: AMES SALMONELLA TYPHIMURIUM, Strain/Indicator: TA1537, Metabolic Activation: RAT LIVER S-9, PHENOBARBITAL AND BETA-NAPHTHOFLAVONE, Method: PREINCUBATION",inactive; negative
same,mutagenic call,"Test System: E.COLI, Strain/Indicator: WP2UVRA/PKM101, Metabolic Activation: NONE, Method: PREINCUBATION",inactive; negative
same,mutagenic call,"Test System: E.COLI, Strain/Indicator: WP2UVRA/PKM101, Metabolic Activation: RAT LIVER S-9, PHENOBARBITAL AND BETA-NAPHTHOFLAVONE, Method: PREINCUBATION",inactive; negative
CC(C)c1ccccc1,mutagenic call,"End Point: In vivo micronucleus, Test System: Polychromatic erythrocytes in bone marrow, Species: Rat, Strain/Sex: F344/N / Male, Route: Intraperitoneal",active; positive (both trials)
same,mutagenic call,"End Point: In vivo micronucleus, Test System: Polychromatic erythrocytes in peripheral blood, Species: Mouse, Strain/Sex: B6C3F1/ Female, Route: Inhalation",inactive; negative
same,mutagenic call,"End Point: In vivo micronucleus, Test System: Polychromatic erythrocytes in peripheral blood, Species: Mouse, Strain/Sex: B6C3F1/ Male, Route: Inhalation",inactive; negative
same,mutagenic call,"Test System: Ames Salmonella typhimurium, Strain/Indicator: TA97, Metabolic Activation: Hamster, Liver, S-9, Aroclor 1254 (10%), Method: Preincubation",inactive; negative
same,mutagenic call,"Test System: Ames Salmonella typhimurium, Strain/Indicator: TA97, Metabolic Activation: Hamster, Liver, S-9, Aroclor 1254 (30%), Method: Preincubation",inactive; negative
same,mutagenic call,"Test System: Ames Salmonella typhimurium, Strain/Indicator: TA97, Metabolic Activation: None, Method: Preincubation",inactive; negative
same,mutagenic call,"Test System: Ames Salmonella typhimurium, Strain/Indicator: TA97, Metabolic Activation: Rat, Liver, S-9, Aroclor 1254 (10%), Method: Preincubation",inactive; negative
same,mutagenic call,"Test System: Ames Salmonella typhimurium, Strain/Indicator: TA97, Metabolic Activation: Rat, Liver, S-9, Aroclor 1254 (30%), Method: Preincubation",inactive; negative
same,mutagenic call,"Test System: Ames Salmonella typhimurium, Strain/Indicator: TA98, Metabolic Activation: Hamster, Liver, S-9, Aroclor 1254 (10%), Method: Preincubation",inactive; negative
same,mutagenic call,"Test System: Ames Salmonella typhimurium, Strain/Indicator: TA98, Metabolic Activation: Hamster, Liver, S-9, Aroclor 1254 (30%), Method: Preincubation",inactive; negative
same,mutagenic call,"Test System: Ames Salmonella typhimurium, Strain/Indicator: TA98, Metabolic Activation: None, Method: Preincubation",inactive; negative
same,mutagenic call,"Test System: Ames Salmonella typhimurium, Strain/Indicator: TA98, Metabolic Activation: Rat, Liver, S-9, Aroclor 1254 (10%), Method: Preincubation",inactive; negative
same,mutagenic call,"Test System: Ames Salmonella typhimurium, Strain/Indicator: TA98, Metabolic Activation: Rat, Liver, S-9, Aroclor 1254 (30%), Method: Preincubation",inactive; negative
same,mutagenic call,"Test System: Ames Salmonella typhimurium, Strain/Indicator: TA100, Metabolic Activation: Hamster, Liver, S-9, Aroclor 1254 (10%), Method: Preincubation",inactive; negative
same,mutagenic call,"Test System: Ames Salmonella typhimurium, Strain/Indicator: TA100, Metabolic Activation: Hamster, Liver, S-9, Aroclor 1254 (30%), Method: Preincubation",inactive; negative
same,mutagenic call,"Test System: Ames Salmonella typhimurium, Strain/Indicator: TA100, Metabolic Activation: None, Method: Preincubation",inactive; negative
same,mutagenic call,"Test System: Ames Salmonella typhimurium, Strain/Indicator: TA100, Metabolic Activation: Rat, Liver, S-9, Aroclor 1254 (10%), Method: Preincubation",inactive; negative
same,mutagenic call,"Test System: Ames Salmonella typhimurium, Strain/Indicator: TA100, Metabolic Activation: Rat, Liver, S-9, Aroclor 1254 (30%), Method: Preincubation",inactive; negative
same,mutagenic call,"Test System: Ames Salmonella typhimurium, Strain/Indicator: TA1535, Metabolic Activation: Hamster, Liver, S-9, Aroclor 1254 (10%), Method: Preincubation",inactive; negative
same,mutagenic call,"Test System: Ames Salmonella typhimurium, Strain/Indicator: TA1535, Metabolic Activation: Hamster, Liver, S-9, Aroclor 1254 (30%), Method: Preincubation",inactive; negative
same,mutagenic call,"Test System: Ames Salmonella typhimurium, Strain/Indicator: TA1535, Metabolic Activation: None, Method: Preincubation",inactive; negative
same,mutagenic call,"Test System: Ames Salmonella typhimurium, Strain/Indicator: TA1535, Metabolic Activation: Rat, Liver, S-9, Aroclor 1254 (10%), Method: Preincubation",inactive; negative
same,mutagenic call,"Test System: Ames Salmonella typhimurium, Strain/Indicator: TA1535, Metabolic Activation: Rat, Liver, S-9, Aroclor 1254 (30%), Method: Preincubation",inactive; negative
O=C(CCCl)N=c1sn(C(=O)CCCl)c2ccccc12,mutagenic call,"Test System: AMES SALMONELLA TYPHIMURIUM, Strain/Indicator: TA100, Metabolic Activation: S-9, Method: STANDARD PLATE",inactive; negative
C[C@@H]1NCCc2cc(O)c(O)cc21,mutagenic call,"End Point: IN VITRO CHROMOSOMAL ABERRATIONS, Test System: CHL FIBROBLAST CELLS, Metabolic Activation: NONE",active; positive
same,mutagenic call,"End Point: IN VITRO CHROMOSOMAL ABERRATIONS, Test System: CHL FIBROBLAST CELLS, Metabolic Activation: RAT, LIVER, S-9 (5%)",inactive; negative
CCn1c(N)nc2c3cccnc3cc(C)c21,mutagenic call,"Test System: AMES SALMONELLA TYPHIMURIUM, Strain/Indicator: TA98, Metabolic Activation: RAT, LIVER, S-9, AROCLOR 1254, Method: PREINCUBATION",active; positive
CCCCC(CC)COC(=O)C(C#N)=C(c1ccccc1)c1ccccc1 (stereo unspecified),mutagenic call,"Test System: AMES SALMONELLA TYPHIMURIUM, Strain/Indicator: TA98, Metabolic Activation: HAMSTER, LIVER, S-9, AROCLOR 1254 (10%), Method: PREINCUBATION",inactive; negative
same,mutagenic call,[1],inactive; negative
same,mutagenic call,"Test System: AMES SALMONELLA TYPHIMURIUM, Strain/Indicator: TA98, Metabolic Activation: RAT, LIVER, S-9, AROCLOR 1254 (10%), Method: PREINCUBATION",inactive; negative
same,mutagenic call,"Test System: AMES SALMONELLA TYPHIMURIUM, Strain/Indicator: TA100, Metabolic Activation: HAMSTER, LIVER, S-9, AROCLOR 1254 (10%), Method: PREINCUBATION",inactive; negative
same,mutagenic call,[2],inactive; negative
same,mutagenic call,"Test System: AMES SALMONELLA TYPHIMURIUM, Strain/Indicator: TA100, Metabolic Activation: RAT, LIVER, S-9, AROCLOR 1254 (10%), Method: PREINCUBATION",inactive; negative
same,mutagenic call,"Test System: AMES SALMONELLA TYPHIMURIUM, Strain/Indicator: TA1535, Metabolic Activation: HAMSTER, LIVER, S-9, AROCLOR 1254 (10%), Method: PREINCUBATION",inactive; negative
same,mutagenic call,[3],inactive; negative
same,mutagenic call,"Test System: AMES SALMONELLA TYPHIMURIUM, Strain/Indicator: TA1535, Metabolic Activation: RAT, LIVER, S-9, AROCLOR 1254 (10%), Method: PREINCUBATION",inactive; negative
same,mutagenic call,"Test System: AMES SALMONELLA TYPHIMURIUM, Strain/Indicator: TA1537, Metabolic Activation: HAMSTER, LIVER, S-9, AROCLOR 1254 (10%), Method: PREINCUBATION",inactive; negative
same,mutagenic call,[4],inactive; negative
same,mutagenic call,"Test System: AMES SALMONELLA TYPHIMURIUM, Strain/Indicator: TA1537, Metabolic Activation: RAT, LIVER, S-9, AROCLOR 1254 (10%), Method: PREINCUBATION",inactive; negative
same,mutagenic call,"Test System: MOUSE LYMPHOMA, Strain/Indicator: L5178Y (TK+/TK-), Metabolic Activation: NONE, Method: SUSPENSION/PLATE",inactive; negative
same,mutagenic call,"Test System: MOUSE LYMPHOMA, Strain/Indicator: L5178Y (TK+/TK-), Metabolic Activation: RAT, LIVER, S-9, AROCLOR 1254, Method: SUSPENSION/PLATE",inactive; negative
